Laboratory results as given in US8592172B2, “Bioluminescent assays using cyanobenzothiazole compounds” (Promega Corporation, priority 2010, dated 2013).

Tested on: CYP1A2
Test: Non-lytic assay with rat hepatocytes, compound 3019
Type: cell-based
Details: 10 nM TCDD 48 hours, 3 μM compound 3019

Clc1cc2c(cc1Cl)Oc1cc(Cl)c(Cl)cc1O2 [TCDD, 2,3,7,8-tetrachlorodibenzo-p-dioxin]
change of basal signal (CYP1A2 induction): significantly increased
